{"source": "patent US20120196927A1", "about": "“PROPHYLACTIC AND/OR THERAPEUTIC AGENT FOR METABOLIC SYNDROME” (priority 2009, published 2012)", "assay_type_in_all_cases": "in vivo, mouse", "key": {"[1]": {"system": "SREBP1-c, SCD1, FAS, ACC1, DGAT1, GLUT4, Adiponectin, TNF-α, MCP-1, PPARγ genes", "assay": "Nobiletin, obesity-induced mice: gene expression in the white adipose tissue (mRNA)", "description": "mRNA expression level was determined by using real time PCR as follows. According to the direction attached with ISOGEN (Nippon Gene Co., Ltd), RNA was extracted from white adipose tissue, liver, and skeletal muscle. Next, cDNA was prepared from 1 μg of RNA by using Reverse Transcription System kit (Promega, USA). Subsequently, according to the direction attached with FastStart universal SYBR (Registered trademark) Greenmaster PCR kit reagent (Roche Diagnostics, Germany), primers suitable for each intended gene in the following experiments were synthesized. Real time PCR system 7700 HT (Applied Biosytems, USA) was used for the measurement, the cDNA was used as templates for the real time PCR. Reaction conditions were followed to those for the PCR kit reagents. Quantitative analysis of RNA level was performed by Comparison Ct method, using glyceraldehyde 3-phosphate dehydrogenase (GAPDH) as the standard.\nThe expression of mouse lipid biosynthesis-related gene and other gene shown in the following table 24 after obesity induction by ingesting the high fat diet were determined as mRNA levels to study the effects of nobiletin to these gene expression (n=9). The expression levels of each gene were shown in the ratio when those of the HFD were 1."}, "[2]": {"system": "C57BL/6J-ob/ob mice", "assay": "Diabetes model mice: oral glucose tolerance test (OGTT)", "settings": "nobiletin 200 mg/kg/day, Pioglitazone 30 mg/kg/day", "description": "The oral glucose tolerance test (OGTT) for the diabetes model mice (ob/ob) to which the nobiletin and others were administrated was subjected to the glucose tolerance test for studying the effects.\nFrom 4 weeks after the start of the administration, the mice in each group were fasted for 16 hours, and then they were administrated 2 g/kg body weight of glucose per os. After the administration of glucose, […] of blood was collected from the tail vein at the time point of 0, 30, 60 and 120 minutes. Collected blood was centrifuged at 4° C., 3,000×g, for 15 minute to obtain plasma (n=10). The blood glucose level was measured as the same as that described in the example 1."}, "[3]": {"system": "C57BL/6J-ob/ob mice", "assay": "Diabetes model mice: fasting blood glucose level", "settings": "nobiletin 200 mg/kg/day, Pioglitazone 30 mg/kg/day p.o.", "description": "Two weeks or 5 weeks from the beginning of the administration, the fasting blood glucose was measured (n=10). The measurement of the blood glucose level was carried out as the same as that of the example 1."}, "[4]": {"system": "male C57BL/6 mice", "assay": "Nobiletin, obesity-induced mice: body weight and ingestion amount", "settings": "for Body weight: HFD obesity-induced mice; for Ingestion amount, [Final Average]: average of 5 weeks; for Body weight, [Final gain]: gained amount during 0 to +5 weeks; for Ingestion amount: per mouse in 24 hrs", "excerpt": "Six weeks age of male C57BL/6 mice were preliminary reared for 1 week (−9 to −8 week); then classified into 4 groups (n=9 in each group). LFD was given to one group and HFD was given to other 3 groups for 8 weeks (−8 to +5 week). From 8 weeks (15 week age) to 13 weeks, each group was given the following agents per os for 5 weeks in everyday. In below, the LFD administration group was defined that they ingested LFD; the HFD administration group is defined that they ingested the HFD without nobiletin. The compositions of the LFD and HFD are the same as those used in the Example 3.\nTo both of the LFD administration group and the HFD administration group, 0.3% CMC aqueous solution was given at the amount of 0.01 mL/g body weight. […] The group to which nobiletin was given at the amount of 10 mg/kg/day was referred to as “No10 administration group; the abbreviated as HFD+No 10” and another group to which nobiletin was given at the amount of 100 mg/kg/day was referred to as “No 100 administration group; abbreviated as HFD+No 100”. The schedule of the feed ingestion and administration of the agent for the above-mentioned 4 groups were schematically shown in FIG. 12A.\nIn the table, [Final gain] means gained amount during 0 to +5 weeks. […] By this, it was shown that nobiletin has the effect to suppress the body weight gain after the obesity induction by ingesting the high fat diet.\nThe ingestion amount of each mouse was measured everyday from 1 to 8 day (0 week) in the beginning of the agent administration. The ingested amount in 24 hrs was measured per cage, and then the average ingestion amount (g) per mouse was calculated. The date of day 0 means that of the previous day of the administration beginning. After 2 weeks from the administration, it was measured twice a week. [Final average] means the average of 5 weeks."}, "[5]": {"system": "adipose cells of the white adipose tissue", "assay": "Diabetes model mice: size of adipose cells of the white adipose tissue", "settings": "200 mg/kg of nobiletin"}, "[6]": {"settings": "ratio HFD = 1, nobiletin 10 mg/kg/day p.o. 5 weeks"}, "[7]": {"settings": "ratio HFD = 1, nobiletin 100 mg/kg/day p.o. 5 weeks"}, "[8]": {"settings": "nobiletin 10 mg/kg/day p.o., HFD"}, "[9]": {"settings": "nobiletin 100 mg/kg/day p.o., HFD"}}, "data": [{"compound": "COc1ccc(-c2cc(=O)c3c(OC)c(OC)c(OC)c(OC)c3o2)cc1OC", "note": "[nobiletin]", "values": [{"measurement": "Expression level, ACC1", "setting": "[1]; [6]", "value": "2.06 ± 0.05"}, {"measurement": "Expression level, Adiponectin", "setting": "[1]; [6]", "value": "1.97 ± 0.09"}, {"measurement": "Expression level, DGAT1", "setting": "[1]; [6]", "value": "2.17 ± 0.19"}, {"measurement": "Expression level, FAS", "setting": "[1]; [6]", "value": "2.78 ± 0.06"}, {"measurement": "Expression level, GLUT4", "setting": "[1]; [6]", "value": "1.34 ± 0.09"}, {"measurement": "Expression level, MCP-1", "setting": "[1]; [6]", "value": "0.44 ± 0.02"}, {"measurement": "Expression level, PPARγ", "setting": "[1]; [6]", "value": "1.61 ± 0.11"}, {"measurement": "Expression level, SCD1", "setting": "[1]; [6]", "value": "2.30 ± 0.06"}, {"measurement": "Expression level, SREBP1-c", "setting": "[1]; [6]", "value": "2.15 ± 0.21"}, {"measurement": "Expression level, TNF-α", "setting": "[1]; [6]", "value": "1.06 ± 0.12"}, {"measurement": "Expression level, ACC1", "setting": "[1]; [7]", "value": "1.69 ± 0.07"}, {"measurement": "Expression level, Adiponectin", "setting": "[1]; [7]", "value": "2.02 ± 0.08"}, {"measurement": "Expression level, DGAT1", "setting": "[1]; [7]", "value": "1.80 ± 0.14"}, {"measurement": "Expression level, FAS", "setting": "[1]; [7]", "value": "2.50 ± 0.03"}, {"measurement": "Expression level, GLUT4", "setting": "[1]; [7]", "value": "1.35 ± 0.07"}, {"measurement": "Expression level, MCP-1", "setting": "[1]; [7]", "value": "0.35 ± 0.01"}, {"measurement": "Expression level, PPARγ", "setting": "[1]; [7]", "value": "1.36 ± 0.05"}, {"measurement": "Expression level, SCD1", "setting": "[1]; [7]", "value": "2.95 ± 0.17"}, {"measurement": "Expression level, SREBP1-c", "setting": "[1]; [7]", "value": "1.53 ± 0.20"}, {"measurement": "Expression level, TNF-α", "setting": "[1]; [7]", "value": "0.58 ± 0.14"}, {"measurement": "Blood glucose level (OGTT)", "setting": "[2]; 0 min after 2 g/kg glucose p.o.", "value": "145.26 ± 7.56", "unit": "mg/dL"}, {"measurement": "Blood glucose level (OGTT)", "setting": "[2]; 30 min after 2 g/kg glucose p.o.", "value": "304.41 ± 20.23", "unit": "mg/dL"}, {"measurement": "Blood glucose level (OGTT)", "setting": "[2]; 60 min after 2 g/kg glucose p.o.", "value": "207.47 ± 11.56", "unit": "mg/dL"}, {"measurement": "Blood glucose level (OGTT)", "setting": "[2]; 120 min after 2 g/kg glucose p.o.", "value": "192.57 ± 9.01", "unit": "mg/dL"}, {"measurement": "Blood glucose level (fasting)", "setting": "[3]; 0 week after administration", "value": "175.61 ± 11.44", "unit": "mg/dL"}, {"measurement": "Blood glucose level (fasting)", "setting": "[3]; 2 weeks after administration", "value": "169.22 ± 13.22", "unit": "mg/dL"}, {"measurement": "Blood glucose level (fasting)", "setting": "[3]; 5 weeks after administration", "value": "148.46 ± 7.56", "unit": "mg/dL"}, {"measurement": "Body weight", "setting": "[4]; nobiletin 10 mg/kg/day p.o. 5 weeks", "value": "33.14 ± 1.02", "unit": "g"}, {"measurement": "Body weight", "setting": "[4]; nobiletin 10 mg/kg/day p.o., 0 weeks after administration", "value": "31.07 ± 0.78", "unit": "g"}, {"measurement": "Body weight", "setting": "[4]; nobiletin 10 mg/kg/day p.o., 1 week", "value": "31.10 ± 0.72", "unit": "g"}, {"measurement": "Body weight", "setting": "[4]; nobiletin 10 mg/kg/day p.o., 2 weeks", "value": "32.10 ± 0.85", "unit": "g"}, {"measurement": "Body weight", "setting": "[4]; nobiletin 10 mg/kg/day p.o., 3 weeks", "value": "33.01 ± 1.01", "unit": "g"}, {"measurement": "Body weight", "setting": "[4]; nobiletin 10 mg/kg/day p.o., 4 weeks", "value": "32.58 ± 0.97", "unit": "g"}, {"measurement": "Body weight", "setting": "[4]; nobiletin 100 mg/kg/day p.o. 5 weeks", "value": "31.88 ± 0.68", "unit": "g"}, {"measurement": "Body weight", "setting": "[4]; nobiletin 100 mg/kg/day p.o., 0 weeks after administration", "value": "31.21 ± 0.60", "unit": "g"}, {"measurement": "Body weight", "setting": "[4]; nobiletin 100 mg/kg/day p.o., 1 week", "value": "29.93 ± 0.52", "unit": "g"}, {"measurement": "Body weight", "setting": "[4]; nobiletin 100 mg/kg/day p.o., 2 weeks", "value": "30.61 ± 0.60", "unit": "g"}, {"measurement": "Body weight", "setting": "[4]; nobiletin 100 mg/kg/day p.o., 3 weeks", "value": "31.62 ± 0.62", "unit": "g"}, {"measurement": "Body weight", "setting": "[4]; nobiletin 100 mg/kg/day p.o., 4 weeks", "value": "31.28 ± 0.59", "unit": "g"}, {"measurement": "Ingestion amount, [Final Average]", "setting": "[4]; [8]", "value": "2.58 ± 0.1", "unit": "g"}, {"measurement": "Ingestion amount, [Final Average]", "setting": "[4]; [9]", "value": "2.61 ± 0.08", "unit": "g"}, {"measurement": "Body weight, [Final gain]", "setting": "[4]; [8]", "value": "2.08 ± 0.69", "unit": "g"}, {"measurement": "Body weight, [Final gain]", "setting": "[4]; [9]", "value": "0.67 ± 0.37", "unit": "g"}, {"measurement": "Ingestion amount", "setting": "[4]; day 0 (previous day of administration beginning), nobiletin 10 mg/kg/day group", "value": "2.36 ± 0.04", "unit": "g"}, {"measurement": "Ingestion amount", "setting": "[4]; day 0 (previous day of administration beginning), nobiletin 100 mg/kg/day group", "value": "2.36 ± 0.04", "unit": "g"}, {"measurement": "Ingestion amount", "setting": "[4]; day 1, nobiletin 10 mg/kg/day p.o., HFD", "value": "2.28 ± 0.13", "unit": "g"}, {"measurement": "Ingestion amount", "setting": "[4]; day 1, nobiletin 100 mg/kg/day p.o., HFD", "value": "1.57 ± 0.09", "unit": "g"}, {"measurement": "Ingestion amount", "setting": "[4]; day 2, nobiletin 10 mg/kg/day p.o., HFD", "value": "1.85 ± 0.19", "unit": "g"}, {"measurement": "Ingestion amount", "setting": "[4]; day 2, nobiletin 100 mg/kg/day p.o., HFD", "value": "1.71 ± 0.13", "unit": "g"}, {"measurement": "Ingestion amount", "setting": "[4]; day 3, nobiletin 10 mg/kg/day p.o., HFD", "value": "1.85 ± 0.19", "unit": "g"}, {"measurement": "Ingestion amount", "setting": "[4]; day 3, nobiletin 100 mg/kg/day p.o., HFD", "value": "1.71 ± 0.13", "unit": "g"}, {"measurement": "Ingestion amount", "setting": "[4]; day 4, nobiletin 10 mg/kg/day p.o., HFD", "value": "2.27 ± 0.28", "unit": "g"}, {"measurement": "Ingestion amount", "setting": "[4]; day 4, nobiletin 100 mg/kg/day p.o., HFD", "value": "1.83 ± 0.15", "unit": "g"}, {"measurement": "Ingestion amount", "setting": "[4]; day 5, nobiletin 10 mg/kg/day p.o., HFD", "value": "1.78 ± 0.21", "unit": "g"}, {"measurement": "Ingestion amount", "setting": "[4]; day 5, nobiletin 100 mg/kg/day p.o., HFD", "value": "1.59 ± 0.20", "unit": "g"}, {"measurement": "Ingestion amount", "setting": "[4]; day 6, nobiletin 10 mg/kg/day p.o., HFD", "value": "2.36 ± 0.14", "unit": "g"}, {"measurement": "Ingestion amount", "setting": "[4]; day 6, nobiletin 100 mg/kg/day p.o., HFD", "value": "2.04 ± 0.09", "unit": "g"}, {"measurement": "Ingestion amount", "setting": "[4]; day 7, nobiletin 10 mg/kg/day p.o., HFD", "value": "2.99 ± 0.07", "unit": "g"}, {"measurement": "Ingestion amount", "setting": "[4]; day 7, nobiletin 100 mg/kg/day p.o., HFD", "value": "2.62 ± 0.12", "unit": "g"}, {"measurement": "Ingestion amount", "setting": "[4]; day 8, nobiletin 10 mg/kg/day p.o., HFD", "value": "2.12 ± 0.32", "unit": "g"}, {"measurement": "Ingestion amount", "setting": "[4]; day 8, nobiletin 100 mg/kg/day p.o., HFD", "value": "2.43 ± 0.03", "unit": "g"}, {"measurement": "shrinking of enlarged adipose cells of the white adipose tissue", "setting": "[5]", "value": "fails to shrink the adipose cells"}]}]}
